# Reference: US9937185B2, “Imidazopyridine compounds and uses thereof” (NEOMED INSTITUTE, priority 2013, dated 2018)
# Molecular target: T1, hP2X3 (human Purinergic P2X receptors subtype 3) (Homo sapiens, UniProt P56373)
# T1 construct: expressed in transfected cells; host or cells: RLE cells (rat liver endothelium, ATCC)
# T1 sequence (P56373 1-397): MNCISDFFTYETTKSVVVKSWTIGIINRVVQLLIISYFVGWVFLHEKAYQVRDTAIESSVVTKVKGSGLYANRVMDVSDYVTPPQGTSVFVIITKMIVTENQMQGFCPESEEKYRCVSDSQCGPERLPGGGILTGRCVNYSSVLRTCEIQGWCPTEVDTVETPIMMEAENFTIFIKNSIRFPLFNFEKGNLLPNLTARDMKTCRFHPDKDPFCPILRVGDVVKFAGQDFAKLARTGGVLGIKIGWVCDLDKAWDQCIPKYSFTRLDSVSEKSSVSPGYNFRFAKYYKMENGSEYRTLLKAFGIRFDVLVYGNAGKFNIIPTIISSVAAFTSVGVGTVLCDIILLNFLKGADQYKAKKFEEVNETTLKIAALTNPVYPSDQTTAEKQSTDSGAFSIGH
# Assay: Fluo-4 calcium mobilization assay (FDSS7000), antagonists at human P2X3 receptor in RLE/hP2X3 cells
# Type: cell-based
# Settings: RLE cells stably expressing hP2X3; 20 min preincubation; 2 uM ATP
# Method: The antagonist properties of compounds in the present invention were assayed as inhibitors of intracellular calcium increase induced by activation of hP2X3 (human Purinergic P2X receptors subtype 3, accession number AB016608 for clone A and accession number NM_002559 for clone B), expressed in RLE cells (rat liver […], ATCC. The RLE/hP2X3 cells were grown in William's medium 1× (Gibco, 12551-032), supplemented with 10% Fetal bovine serum (Wisent, 090850), 2 mM L-Glutamine (Wisent, 609-065-EL), and 600 μg/mL Geneticin G-418 (Wisent, 61234) in a humidified incubator (5% CO2 and 37° C.).
# Fluo-4 assay on FDSS7000 (Hamamatsu) was performed using cryopreserved RLE cells stably expressing hP2X3 plated in 384 well plates, 24 hr before the experiment at a density appropriate for obtaining the desired final confluence. After processing the cell plates with Fluo-4 and performing a subsequent incubation followed by washing steps, a double addition was carried out. The first addition included the test compounds diluted in HBSS buffer containing 2 mM CaCl2 preincubated for 20 min before a second addition. The second addition included 2 uM of ATP. Calcium mobilization was measured with the FDSS7000 over a time lapse of 3 min, and fluorescent counts were exported for analysis. […] Hill coefficients and % inhibitions can also be determined.
row,Structure (SMILES),IC50 [nM]
1,CNC(=O)c1cc(C)c(-c2nc3cc(C)ccn3c2C[C@H]2CN(C(C)=O)CCO2)cc1F [Example 18],7
2,CNC(=O)c1cc(C)c(-c2nc3cc(C)ccn3c2C[C@@H]2CN(C(C)=O)CCO2)cc1F [Example 19],158
3,CNC(=O)c1ccc(-c2nc3cc(C)ccn3c2C[C@H]2CN(C(=O)OC)CCO2)c(C)c1 [Example 21],7
4,CNC(=O)c1cc(F)c(-c2nc3cc(Cl)ccn3c2C[C@H]2CN(C(C)=O)CCO2)c(F)c1 [Example 29],5
5,CCC(=O)N1CCO[C@@H](Cc2c(-c3ccc(C(=O)NC)cc3C)nc3cc(C)ccn23)C1 [Example 31],5
6,CNC(=O)c1cc(F)c(-c2nc3cc(C)ccn3c2C[C@H]2CN(C(C)=O)CCO2)c(F)c1 [Example 32],3
7,CCNC(=O)c1ccc(-c2nc3cc(C)ccn3c2C[C@H]2CN(C(C)=O)CCO2)c(C)c1 [Example 33],7
8,CNC(=O)c1ccc(-c2nc3cc(C#N)ccn3c2C[C@H]2CN(C(=O)OC)CCO2)c(C)c1 [Example 36],114
9,CNC(=O)c1ccc(-c2nc3cc(C)ccn3c2CC2CCN(C(=O)OC)C2)c(C)c1 (stereo not shown) [Example 41],84
10,"CNC(=O)c1ccc(-c2nc3cc(C)ccn3c2CC2CCN(C(=O)OC)CC2)c(C)c1 [Example 45, methyl 4-((7-methyl-2-(2-methyl-4-(methylcarbamoyl)phenyl)imidazo[1,2-a]pyridin-3-yl)methyl)piperidine-1-carboxylate]",26
11,"CNC(=O)c1ccc(-c2nc3cc(C)ccn3c2CC2CCN(C(C)=O)CC2)c(C)c1 [Example 46, 4-(3-((1-acetylpiperidin-4-yl)methyl)-7-methylimidazo[1,2-a]pyridin-2-yl)-N,3-dimethylbenzamide]",66
12,CNC(=O)c1ccc(-c2nc3cc(C)ccn3c2C[C@@H]2CN(C(C)=O)CCO2)c(C)c1 [Example 47],87

# Further lines, results first:
row,IC50 [nM],Structure (SMILES)
1,111,CNC(=O)c1ccc(-c2nc3cc(Cl)ccn3c2C[C@@H]2CN(C(C)=O)CCO2)c(C)c1 [Example 27]
2,103,CNC(=O)c1ccc(-c2nc3cc(C)ccn3c2CC2CCN(C(C)=O)C2)c(C)c1 (stereo not shown) [Example 44]
3,59,CNC(=O)c1ccc(-c2nc3cc(C)ccn3c2CC2CC(C)N(C(C)=O)C2)c(C)c1 (stereo not shown) [Example 42]
4,45,CNC(=O)c1ccc(-c2nc3cc(C)ccn3c2C[C@@H]2CN(C(=O)OC)CCO2)c(C)c1 [Example 22]
5,18,CNC(=O)c1cc(F)c(-c2nc3cc(C)ccn3c2C[C@H]2CN(C(C)=O)CCO2)cc1F [Example 23]
6,16,CCC(=O)N1CCO[C@H](Cc2c(-c3c(F)cc(C(=O)NC)cc3F)nc3cc(C)ccn23)C1 [Example 35]
7,11,CCC(=O)N1CCO[C@@H](Cc2c(-c3cc(F)c(C(=O)NC)cc3C)nc3cc(Cl)ccn23)C1 [Example 26]
8,11,CNC(=O)c1ccc(-c2nc3cc(C)ccn3c2CC2CCCN(C(=O)OC)C2)c(C)c1 (stereo not shown) [Example 37]
9,10,CNC(=O)c1cc(C)c(-c2nc3cc(C)ccn3c2C[C@H]2CN(C(=O)OC)CCO2)cc1F [Example 24]
10,10,CNC(=O)c1ccc(-c2nc3cc(C)ccn3c2CC2CCCN(C(C)=O)C2)c(C)c1 (stereo not shown) [Example 38]
11,10,CNC(=O)c1ccc(-c2nc3cc(C)c(F)cn3c2C[C@H]2CN(C(C)=O)CCO2)c(C)c1 [Example 39]
12,7,CNC(=O)c1ccc(-c2nc3cc(Cl)ccn3c2C[C@H]2CN(C(C)=O)CCO2)c(C)c1 [Example 25]
13,6,CCC(=O)N1CCO[C@@H](Cc2c(-c3cc(F)c(C(=O)NC)cc3C)nc3cc(C)ccn23)C1 [Example 17]
14,6,CNC(=O)c1cc(F)c(-c2nc3cc(Cl)ccn3c2C[C@H]2CN(C(=O)OC)CCO2)c(F)c1 [Example 28]
15,6,CCC(=O)N1CCO[C@@H](Cc2c(-c3c(F)cc(C(=O)NC)cc3F)nc3cc(Cl)ccn23)C1 [Example 30]
16,4,CNC(=O)c1ccc(-c2nc3cc(C)ccn3c2C[C@H]2CN(C(C)=O)CCO2)c(C)c1 [Example 20]
17,3,CCC(=O)N1CCO[C@@H](Cc2c(-c3c(F)cc(C(=O)NC)cc3F)nc3cc(C)ccn23)C1 [Example 16]

# System: rat FCA 96 hr paw model of inflammatory pain, mechanical hyperalgesia
# Assay: Rat FCA 96 hr paw model of inflammatory pain: mechanical hyperalgesia (Ugo Basile analgesy meter)
# Type: in vivo
# Settings: oral dosing 0.3-1-3-10-20 μmol/kg, 96 h after FCA
# Method: (§1) One of the compounds of the present invention was evaluated in an in vivo model of inflammatory pain.
# (§2) Male Sprague-Dawley rats (Charles River, St-Constant, Qc, CAN) weighing 200-225 g were utilized for the animal experiment studies. The animals were group-housed in polycarbonate, ventilated cages (filter top) in a controlled environment room (12-h light/dark cycle, 20.5-23.5° C., relative humidity: 40-70%) with food (14% Protein Rodent Maintenance Diet, Harlan Teklad, Madisson, Wis., USA) and water ad libidum.
# Inflammation was induced by injection of a single 40 μl Freund's complete adjuvant (FCA) intra-plantar injection into the rat's left hindpaw. All experiments were conducted 96h after FCA administration. Twenty-four hours prior to behavioral testing animals were brought to the laboratory for acclimatization to the new environment. Animals were sacrificed immediately after data acquisition.
# Mechanical hyperalgesia was assessed using the Ugo Basile analgesy meter (Ugo Basile, Comerio, Italy) Animals were gently restrained, and a steadily increasing pressure was applied to the dorsal surface of a hind paw via a probe with a dome-shaped tip (diameter of 1 mm). The pressure required to elicit paw withdrawal was determined. An assay cut off was set at 295 g. […] Paw withdrawal thresholds were calculated as the mean of the two values. […]
row,Structure (SMILES),reversal of mechanical hyperalgesia
1,"CNC(=O)c1cc(F)c(-c2nc3cc(C)ccn3c2C[C@H]2CN(C(=O)OC)CCO2)c(F)c1 [Example 15, (S)-methyl-2-((2-(2,6-difluoro-4-(methylcarbamoyl)phenyl)-7-methylimidazo[1,2-a]pyridin-3-yl)methyl)morpholine-4-carboxylate]",free plasma concentration dependent reversal

# System: rat FCA 96 hr paw model of inflammatory pain, heat hyperalgesia
# Assay: Rat FCA 96 hr paw model of inflammatory pain: heat hyperalgesia (Plantar Test)
# Type: in vivo
# Settings: oral dosing 0.3-1-3-10-20 μmol/kg, 96 h after FCA
# Method: as §1, §2
# Inflammation was induced by injection of a single 40 μl Freund's complete adjuvant (FCA) intra-plantar injection into the rat's left hindpaw. All experiments were conducted 96h after FCA administration. […]
# Heat hyperalgesia (Plantar Test) was assessed using a Paw Thermal Stimulator to apply a controlled heat to the plantar surface of the affected paw. […] The heat source and timer were then turned on simultaneously; when the animal withdrew the hind paw the number of seconds was recorded. […]
# Satellite animals were used to monitor the free plasma concentration of example 15 at the doses and time points used in the nociceptive tests. Free plasma EC50 values in behavioral studies were determined from 4-point concentration-response curves using non-linear regression and a sigmoidal variable slope logistic model (Prism 4.03, GraphPad Software Inc., USA).
row,Structure (SMILES),reversal of heat hyperalgesia
1,"CNC(=O)c1cc(F)c(-c2nc3cc(C)ccn3c2C[C@H]2CN(C(=O)OC)CCO2)c(F)c1 [Example 15, (S)-methyl-2-((2-(2,6-difluoro-4-(methylcarbamoyl)phenyl)-7-methylimidazo[1,2-a]pyridin-3-yl)methyl)morpholine-4-carboxylate]",free plasma concentration dependent reversal
